What all share (type): cell-based
In assay [1] the test system is HDAC. Briefly: Cellular HDAC enzymatic assay (FLUOR DE LYS HDAC fluorometric cellular activity assay) in CD4 enriched Jurkat T cells. The method, then:
(§1) Cellular HDAC enzymatic assay was conducted for 3 days with the CD4 enriched Jurkat T lymphocyte cells or B lymphocyte cells treated with various amounts of drugs using FLUOR DE LYS® HDAC fluorometric cellular activity assay kit (Enzo Life Sciences, Inc., cat. No: BML-AK503-0001). The assay was performed following the manufacturer's instructions. […] The Fluor de Lys substrate was added in a culture media. After 30 min 37° C., 1 volume of the developer was added. After 15 min 37° C., the fluorophore was excited with 355 nm light and the emitted light (450 nm) was being detected on a fluorometric plate reader (Clariostar: BMG, Buckinghamshire, UK). For each experiment, controls (containing CD4 enriched Jurkat T lymphocyte cells or Ramos B lymphocyte cells and buffer), a blank incubation (containing buffer but no CD4 enriched Jurkat T lymphocyte cells or Ramos B lymphocyte cells) and samples (containing compound dissolved in DMSO or ADCs dissolved in PBS and further diluted in medium) were run in parallel. In each test the blank value was subtracted from both the control and the sample values. The control sample represented 100% of substrate deacetylation. For each sample the fluorescence was expressed as a percentage of the mean value of the controls.

In assay [2] the test system is HDAC. Description: Cellular HDAC enzymatic assay (FLUOR DE LYS HDAC fluorometric cellular activity assay) in Ramos B lymphocyte cells. The method, then: as §1
In assay [3] the test system is Ramos(human B lymphocyte). Description: Cytotoxicity assay, CellTiter-Glo Luminescent Cell Viability Assay, Ramos. The conditions noted are these: 72 h, read-out: IC50 value of Luminescent Cell Viability Assay.
The subject of assay [4] is Jurkat CD4^+ (human T lymphocyte cells). Briefly: Cytotoxicity assay, CellTiter-Glo Luminescent Cell Viability Assay, Jurkat. The conditions noted are these: 72 h, read-out: IC50 value of Luminescent Cell Viability Assay. On the procedure:
In vitro cytotoxicity assay was conducted for 3 days with the CD4 enriched Jurkat T cells and treated with various amounts of drugs using CellTiter-Glo® Luminescent Cell Viability Assay Kit (Promega, G7571). The assay was performed following the manufacturer's instructions. Briefly, cells were plated in 96-well plates at […] in 100 μl RPMI 1640 medium with 10% heat-inactivated Fetal Bovine Serum. The following day, a serial ten-fold dilution for eight points of drugs (Romidepsin, TMB-355-ADC, and TMB-355) was used. The final concentration in the test was ranging from 1×10^3 nM to 1×10^−4 nM for Romidepsin, from 6.67×10^2 nM to 6.67×10^−5 nM for TMB-355-ADC and TMB-355. The cells were then incubated at 37° C. for 72 h. Subsequently, 100 μL/well of CellTiter-Glo reagent was added and the cells were shaken for 2 minutes and then incubated for an additional 10 minutes at room temperature. After the incubation time, luminescence (light) was measured in a luminometer (Clariostar: BMG, Buckinghamshire, UK). The IC50 corresponds to the drug concentration which achieves 50% activity of untreated control cultures. IC50 values were calculated using the software package Prism 6.0 (GraphPad Software Inc., San Diego, Calif.) with variable slope option.

The values below come from patent US20240398969A1, “ANTIBODY-DRUG CONJUGATES FOR TREATING INFECTIONS OF HUMAN IMMUNODEFICIENCY VIRUS (HIV)” (priority 2023, published 2024).

Where two headings read alike, the source gives them in different places.

For TMB-355, the IC50 with HDAC [1] (Jurkat CD4^+ (human T lymphocyte cells), 3 days; read-out: IC50 value of Cellular HDAC enzymatic assay) is more than 667 nM; in the assay with HDAC [2] (Ramos (human B lymphocyte), 3 days; read-out: IC50 value of Cellular HDAC enzymatic assay) it was more than 667 nM; in assay [3] (Ramos (human B lymphocyte)) it was more than 667 nM; in assay [4] (Jurkat CD4^+ (human T lymphocyte cells)), more than 667 nM.

With `C/C=C1\NC(=O)[C@H]2CSSCC/C=C/[C@H](CC(=O)N[C@H](C(C)C)C(=O)N2)OC(=O)[C@H](C(C)C)NC1=O` [Romidepsin], the IC50 in the assay on HDAC [1] (read-out: IC50 value of Cellular HDAC enzymatic assay; Jurkat CD4^+ (human T lymphocyte cells), 3 days) is 1.6 nM; in the assay on HDAC [2] (read-out: IC50 value of Cellular HDAC enzymatic assay; Ramos (human B lymphocyte), 3 days), 3.9 nM; in assay [3] (Homo sapiens, Ramos), 2.2 nM; in assay [4] (Homo sapiens, Jurkat) it was 1.6 nM.
